Test results: article PMC9881157 (2023)

Experiments:
Assay in all cases: RNA-DRaCALA titration
[1] = system: C16 (RNA, riboswitch) CAGAAGGGUACCUAGGGUUCCGUCCAUUUGAUUCAAGGGAGUCUGGACCAAGCGGUAUCGGCACCGGGAUAUGGUGUACACCGUGGGGAUAAAAGCCUCCAGCGGCAGGUUCUGAUGCAAAAAAAGCCACCGCCACCGCCACCGCCACCGCCACCGCCACCGCC; settings: 10 mM MgCl2; 20 mM Tris-HCl pH 7.5, 37 °C; 10 nM 32P-ligand
[2] = system: C21 (RNA, riboswitch) UAAGAGGCUAACUAGGGUUCCGAUGGUUUCAUGCUGGUCCAAGCGUUAGCAAACAUACUGAGGAAGGUAUGUUACACCGUUAGUACAAAAGGCUCGGCGGGAGGUCUUAUCCUUAAAAAAGCCACCGCCACCGCCACCGCCACCGCCACCGCCACCGCC; settings: 10 mM MgCl2; 20 mM Tris-HCl pH 7.5, 37 °C; 10 nM 32P-ligand
[3] = system: To-B (T. oceani ilvE, biotinylated) (RNA, riboswitch) AGGAAGUGUACCUUAGGGUUCCGGCCAUAAGGCGUCAGCGACCGAGCGGUACAAUCCGGGGAAACCCGGAACACCGUGAGCAUAAAAGGCUCCAGCGGCAAGUUCCUAAAAGAC; settings: 10 mM MgCl2; 20 mM Tris-HCl pH 7.5, 37 °C; 1 nM 32P-ppGpp

Compound | Kd [1] | Kd [2] | Kd [3]
Nc1nc2c(ncn2[C@@H]2O[C@H](COP(=O)(O)OP(=O)(O)O)[C@@H](OP(=O)(O)OP(=O)(O)O)[C@H]2O)c(=O)[nH]1 | 33 ± 3.7 nM | 654 ± 121 nM | 22.1 ± 1.6 nM
Nc1nc2c(ncn2[C@@H]2O[C@H](COP(=O)(O)OP(=O)(O)OP(=O)(O)O)[C@@H](OP(=O)(O)OP(=O)(O)O)[C@H]2O)c(=O)[nH]1 | 137 ± 17 nM | – | –
